From patent US7575930B2, “Method for analyzing oligosaccharides from blood plasma” (priority 2005, dated 2009)

Key:
[1] = Monitoring of the plasma concentration of 3 octasaccharides in beagle dogs after subcutaneous administration (plasma filtration + anion-exchange HPLC); format: in vivo, male dogs of the beagle breed; conditions: 0.5 mg/kg each
Method: (§1) A plasma sample with a volume of between 100 and 1000 μl is withdrawn and, if appropriate, the internal standard is added to the latter.
(§2) After homogenization, the resulting solution is introduced into a 30 kD Ultrafree 05 ultrafiltration cartridge (Millipore) rinsed beforehand with 250 μl of water by centrifuging at 10 000 rev/min for 5 minutes. The plasma is introduced into the upper part of the cartridge once or twice, if the amounts to be filtered are greater than 500 μl.
(§3) The cartridge is centrifuged at 10 000 rev/min for between 1 and 2 hours and then the filtrate is withdrawn. If appropriate, the second part of the plasma to be filtered is introduced into the upper part of the cartridge and the latter is again centrifuged. The exact amount of plasma introduced will have been weighed. The cartridge is centrifuged until the protein residue in the upper part of the cartridge represents no more than approximately 10% of the initial part.
(§4) The filtrate is withdrawn and 210 μl of 3M KCl per ml of plasma filtered are added to the concentrate.
(§5) After homogenization, the cartridge is centrifuged at 10 000 rev/min for between 1 and 4 hours. The cartridge is centrifuged until the protein residue in the upper part of the cartridge represents no more than approximately 10% of the initial part.
(§6) The second filtrate is withdrawn and 210 μl of 3M KCl per ml of plasma filtered are added a second time to the concentrate.
(§7) The third filtrate is withdrawn and 250 μl of water per ml of plasma filtered are added.
(§8) The filtrates are combined and diluted 5 fold in water, and the whole is injected directly in anion-exchange HPLC. Immediately before injection, the pH of the injected solution is adjusted to 3 by addition of 1N HCl.
(§9) The filtered plasma is analyzed by anion-exchange HPLC.
(§10) The columns used are IonPAc As11 columns (Dionex), with a length of 25 cm and an internal diameter of 2 mm. The detector used is a UV spectrophotometer equipped with an array of diodes.
(§11) The whole of the […] is injected after adjustment of the pH to 3 by addition of N HCl. The flow rate chosen is 0.22 ml/min; the column temperature is 40° C.
(§12) Elution is carried out in gradient mode. The two solutions used are:
(§13) Solvent A: NaH2PO4 2.5 mM, brought to pH 2.9 by addition of H3PO4
(§14) Solvent B: NaClO4 1N, NaH2PO4 2.5 mM, brought to pH 3.0 by addition of H3PO4
(§15) The elution gradient is as follows:
(§16) T=0 min: % B=3; T=40 min: % B=60; T=60 min: % B=80
The evolution of a mixture of three octasaccharides in the blood of male dogs of the beagle breed is monitored. These 3 octasaccharides, symbolized ΔIIaIIsIsIs, ΔIsIIaIIsIs and ΔIIaIIsIsIs^1,6-anhydro, are the main affinity octasaccharides of the octasaccharide fractions of Lovenox®.
The mixture is administered subcutaneously to 3 male dogs of the beagle breed at a target dose with regard to each of these 3 constituents of 0.5 mg/kg. The administration solution is a 0.9% NaCl solution of the mixture of the 3 octasaccharides at the target concentration of 0.5 mg/ml. Blood samples of 5 ml are withdrawn at the times 0, 0.25 h, 0.5 h, 1 h, 2 h, 4 h, 6 h, 8 h, 24 h, 30 h and 48 h after administration. The blood samples withdrawn are collected in tubes containing 400 μl of a CTAD (citrate, theophylline, adenosine, dipyridamole) mixture. After homogenization, the solution is centrifuged at 3000 g at 15° C. for 15 min. The plasma supernatant is recovered and stored at −20° C. until use.
For the treatment of the plasma before HPLC injection, approximately 1 ml of plasma is withdrawn and weighed, to which 50 μl of a solution of the internal standard at a concentration of approximately 0.02 g/l are added.
The internal standard is chosen so that it is structurally as close as possible to the products to be analyzed. Its structure is given below.
The tetrasaccharide used makes it possible to correct the potentional influence of the variations in the extraction yield.
The plasma is treated and analyzed by HPLC.

[2] = Monitoring of the plasma concentration of the main oligosaccharides of a VLMWH in human volunteers (plasma filtration + anion-exchange HPLC); format: in vivo
Method: as §1, §2, §3, §4, §5, §6, §7, §8, §9, §10, §11, §12, §13, §14, §15, §16
A VLMWH with an average molecular weight of 2500 Da is administered at the target dose of 1.4 mg/kg to human volunteers. Blood samples are withdrawn at the times 0, 0.25 h, 0.5 h, 0.75 h, 1 h, 1.25 h, 1.5 h, 2 h, 2.5 h, 3 h, 3.5 h, 4 h, 4.5 h, 5 h, 6 h, 7 h, 8 h, 9 h, 10 h, 12 h, 14 h and 24 h after administration.
As the VLMWH used is a complex mixture of oligosaccharides, the study was limited to certain components chosen from this mixture.

[3] = target: ATIII (Homo sapiens, UniProt P01008); assay: Affinity for ATIII; format: binding
Sequence of ATIII (P01008 33-464, species assumed): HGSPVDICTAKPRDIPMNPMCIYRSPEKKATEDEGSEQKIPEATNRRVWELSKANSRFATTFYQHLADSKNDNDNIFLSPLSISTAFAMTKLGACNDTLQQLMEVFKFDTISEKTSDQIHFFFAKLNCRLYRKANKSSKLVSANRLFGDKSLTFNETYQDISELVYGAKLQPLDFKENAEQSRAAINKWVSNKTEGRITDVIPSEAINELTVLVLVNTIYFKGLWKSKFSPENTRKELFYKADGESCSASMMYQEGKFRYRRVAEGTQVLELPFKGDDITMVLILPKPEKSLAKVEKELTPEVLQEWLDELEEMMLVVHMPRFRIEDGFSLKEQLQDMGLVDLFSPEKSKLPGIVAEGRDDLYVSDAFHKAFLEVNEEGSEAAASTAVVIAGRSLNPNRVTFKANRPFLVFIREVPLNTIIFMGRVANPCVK

- plasma concentration ([1]; Dog 1, 0 h after subcutaneous administration): 0 nM
- plasma concentration ([1]; Dog 1, 0.25 h after subcutaneous administration): 40 nM
- plasma concentration ([1]; Dog 1, 0.5 h after subcutaneous administration): 180 nM
- plasma concentration ([1]; Dog 1, 1 h after subcutaneous administration): 330 nM
- plasma concentration ([1]; Dog 1, 2 h after subcutaneous administration): 590 nM
- plasma concentration ([1]; Dog 1, 4 h after subcutaneous administration): 470 nM
- plasma concentration ([1]; Dog 1, 6 h after subcutaneous administration): 360 nM
- plasma concentration ([1]; Dog 1, 8 h after subcutaneous administration): 280 nM
- plasma concentration ([1]; Dog 1, 24 h after subcutaneous administration): 40 nM
- plasma concentration ([1]; Dog 1, 30 h after subcutaneous administration): 20 nM
- plasma concentration ([1]; Dog 1, 48 h after subcutaneous administration): 0 nM
- plasma concentration ([1]; Dog 2, 0 h after subcutaneous administration): 0 nM
- plasma concentration ([1]; Dog 2, 0.25 h after subcutaneous administration): 50 nM
- plasma concentration ([1]; Dog 2, 0.5 h after subcutaneous administration): 100 nM
- plasma concentration ([1]; Dog 2, 1 h after subcutaneous administration): 200 nM
- plasma concentration ([1]; Dog 2, 2 h after subcutaneous administration): 320 nM
- plasma concentration ([1]; Dog 2, 4 h after subcutaneous administration): 300 nM
- plasma concentration ([1]; Dog 2, 6 h after subcutaneous administration): 370 nM
- plasma concentration ([1]; Dog 2, 8 h after subcutaneous administration): 260 nM
- plasma concentration ([1]; Dog 2, 24 h after subcutaneous administration): 40 nM
- plasma concentration ([1]; Dog 2, 30 h after subcutaneous administration): 10 nM
- plasma concentration ([1]; Dog 2, 48 h after subcutaneous administration): 0 nM
- plasma concentration ([1]; Dog 3, 0 h after subcutaneous administration): 0 nM
- plasma concentration ([1]; Dog 3, 0.25 h after subcutaneous administration): 60 nM
- plasma concentration ([1]; Dog 3, 0.5 h after subcutaneous administration): 170 nM
- plasma concentration ([1]; Dog 3, 1 h after subcutaneous administration): 240 nM
- plasma concentration ([1]; Dog 3, 2 h after subcutaneous administration): 330 nM
- plasma concentration ([1]; Dog 3, 4 h after subcutaneous administration): 450 nM
- plasma concentration ([1]; Dog 3, 6 h after subcutaneous administration): 360 nM
- plasma concentration ([1]; Dog 3, 8 h after subcutaneous administration): 290 nM
- plasma concentration ([1]; Dog 3, 24 h after subcutaneous administration): 40 nM
- plasma concentration ([1]; Dog 3, 30 h after subcutaneous administration): 20 nM
- plasma concentration ([1]; Dog 3, 48 h after subcutaneous administration): 0 nM
- plasma concentration ([2]; 0 h after administration of VLMWH (2500 Da) 1.4 mg/kg): 0 nM
- plasma concentration ([2]; 0.25 h after administration of VLMWH (2500 Da) 1.4 mg/kg): 10 nM
- plasma concentration ([2]; 0.5 h after administration of VLMWH (2500 Da) 1.4 mg/kg): 30 nM
- plasma concentration ([2]; 0.75 h after administration of VLMWH (2500 Da) 1.4 mg/kg): 20 nM
- plasma concentration ([2]; 1 h after administration of VLMWH (2500 Da) 1.4 mg/kg): 30 nM
- plasma concentration ([2]; 1.25 h after administration of VLMWH (2500 Da) 1.4 mg/kg): 40 nM
- plasma concentration ([2]; 1.5 h after administration of VLMWH (2500 Da) 1.4 mg/kg): 40 nM
- plasma concentration ([2]; 2 h after administration of VLMWH (2500 Da) 1.4 mg/kg): 40 nM
- plasma concentration ([2]; 2.5 h after administration of VLMWH (2500 Da) 1.4 mg/kg): 30 nM
- plasma concentration ([2]; 3 h after administration of VLMWH (2500 Da) 1.4 mg/kg): 30 nM
- plasma concentration ([2]; 3.5 h after administration of VLMWH (2500 Da) 1.4 mg/kg): 40 nM
- plasma concentration ([2]; 4 h after administration of VLMWH (2500 Da) 1.4 mg/kg): 20 nM
- plasma concentration ([2]; 4.5 h after administration of VLMWH (2500 Da) 1.4 mg/kg): 40 nM
- plasma concentration ([2]; 5 h after administration of VLMWH (2500 Da) 1.4 mg/kg): 30 nM
- plasma concentration ([2]; 6 h after administration of VLMWH (2500 Da) 1.4 mg/kg): 20 nM
- plasma concentration ([2]; 7 h after administration of VLMWH (2500 Da) 1.4 mg/kg): 40 nM
- plasma concentration ([2]; 8 h after administration of VLMWH (2500 Da) 1.4 mg/kg): 20 nM
- plasma concentration ([2]; 9 h after administration of VLMWH (2500 Da) 1.4 mg/kg): 20 nM
- plasma concentration ([2]; 10 h after administration of VLMWH (2500 Da) 1.4 mg/kg): 20 nM
- plasma concentration ([2]; 12 h after administration of VLMWH (2500 Da) 1.4 mg/kg): 30 nM
- plasma concentration ([2]; 14 h after administration of VLMWH (2500 Da) 1.4 mg/kg): 20 nM
- plasma concentration ([2]; 24 h after administration of VLMWH (2500 Da) 1.4 mg/kg): 10 nM
- affinity for ATIII [3]: high affinity for ATIII
SMILES: CC(=O)NC1C(OC2C(C(=O)O)OC(OC3C(COS(=O)(=O)O)OC(OC4C(C(=O)O)OC(OC5C(COS(=O)(=O)O)OC(OC6C(C(=O)O)OC(OC7C(COS(=O)(=O)O)OC(O)C(NS(=O)(=O)O)C7O)C(OS(=O)(=O)O)C6O)C(NS(=O)(=O)O)C5O)C(OS(=O)(=O)O)C4O)C(NS(=O)(=O)O)C3OS(=O)(=O)O)C(O)C2O)OC(COS(=O)(=O)O)C(OC2OC(C(=O)O)=CC(O)C2O)C1O (centres unmarked) [ΔIIaIIsIsIs]
